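Protocol summary: plate cells (96-well), add compound at 5 concentrations, incubate 48 h, interpolate endpoints linearly. GI50 is the concentration that inhibits growth by half.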 Calls of active or inactive are those of the source. Rule as the data show it: active = GI50 up to about 1.1 µM and inactive = higher.
What was measured:
Experiment in all cases: NCI tumour cell line growth inhibition, 48 h
HOP-92 = system: HOP-92
OVCAR-8 = system: OVCAR-8
CCRF-CEM = system: CCRF-CEM
M14 = system: M14
NCI/ADR-RES = system: NCI/ADR-RES
SK-MEL-2 = system: SK-MEL-2
SF-539 = system: SF-539
K562 = system: K562
HOP-62 = system: HOP-62
BT-549 = system: BT-549
MDA-MB-435 = system: MDA-MB-435
SF-268 = system: SF-268
EKVX = system: EKVX
OVCAR-5 = system: OVCAR-5
MCF7 = system: MCF7
UACC-257 = system: UACC-257
HT-29 = system: HT-29
Hs-578T = system: Hs-578T
NCI-H460 = system: NCI-H460

Measured: GI50

CC(=O)N[C@@H](Cc1ccc(O)cn1)C(=O)NC1CCCCC1
inactive: HOP-92 > 100 µM | OVCAR-8 > 100 µM | CCRF-CEM > 100 µM | M14 > 100 µM | NCI/ADR-RES > 100 µM | SK-MEL-2 > 100 µM | SF-539 > 100 µM | K562 > 100 µM | HOP-62 > 100 µM | BT-549 > 100 µM | MDA-MB-435 > 100 µM | SF-268 > 100 µM | EKVX > 100 µM | OVCAR-5 > 100 µM | MCF7 > 100 µM | UACC-257 > 100 µM | HT-29 > 100 µM | Hs-578T > 100 µM

NCCCCC(NC(=O)C(N)Cc1ccc(O)cn1)C(=O)O (stereo not given)
inactive: HOP-92 > 100 µM | OVCAR-8 > 100 µM | CCRF-CEM > 100 µM | NCI/ADR-RES > 100 µM | SF-539 > 100 µM | K562 > 100 µM | NCI-H460 > 100 µM | HOP-62 > 100 µM | BT-549 > 100 µM | MDA-MB-435 > 100 µM | SF-268 > 100 µM | EKVX > 100 µM | OVCAR-5 > 100 µM | MCF7 > 100 µM | UACC-257 > 100 µM | HT-29 > 100 µM | Hs-578T > 100 µM

COC1CC(OC2C(C)OC(OC3C(C)OC(OC4C(O)CC(O[C@H]5CC[C@@]6(C)C(=CC[C@]7(O)[C@@H]6C[C@@H](OC(=O)/C=C/c6ccccc6)[C@@]6(C)[C@]7(O)CC[C@@]6(O)C(C)=O)C5)OC4C)CC3OC)CC2OC)OC(C)C1O (stereo not given in full)
inactive: HOP-92 > 6.25 µM | OVCAR-8 > 6.25 µM | CCRF-CEM > 6.25 µM | M14 > 6.25 µM | NCI/ADR-RES > 6.25 µM | SK-MEL-2 > 6.25 µM | SF-539 > 6.25 µM | K562 > 6.25 µM | HOP-62 > 6.25 µM | BT-549 > 6.25 µM | MDA-MB-435 > 6.25 µM | SF-268 > 6.25 µM | EKVX > 6.25 µM | OVCAR-5 > 6.25 µM | MCF7 > 6.25 µM | UACC-257 > 6.25 µM | HT-29 > 6.25 µM | Hs-578T > 6.25 µM

COC1OC2COC(=O)c3cc(O)c(O)c(O)c3-c3c(cc(O)c(O)c3O)C(=O)OC2C(O)C1O (stereo not given)
inactive: OVCAR-8 54.1 µM | CCRF-CEM 37.3 µM | M14 43.9 µM | NCI/ADR-RES > 100 µM | SK-MEL-2 84.5 µM | SF-539 > 100 µM | K562 36.4 µM | NCI-H460 45.3 µM | HOP-62 53 µM | BT-549 > 100 µM | MDA-MB-435 30.5 µM | SF-268 64 µM | EKVX > 100 µM | OVCAR-5 53.8 µM | MCF7 42.6 µM | UACC-257 > 100 µM | HT-29 34.4 µM | Hs-578T > 100 µM

COC(=O)[C@H](Cc1ccccc1)NC(=O)N(CCC#N)CCCCN(CCC#N)C(=O)N[C@@H](Cc1ccccc1)C(=O)OC
inactive: HOP-92 > 100 µM | OVCAR-8 > 100 µM | M14 > 100 µM | NCI/ADR-RES > 100 µM | SK-MEL-2 > 100 µM | K562 > 100 µM | NCI-H460 > 81.8 µM | HOP-62 > 100 µM | BT-549 > 100 µM | MDA-MB-435 > 100 µM | SF-268 > 100 µM | EKVX > 100 µM | OVCAR-5 > 100 µM | MCF7 > 100 µM | UACC-257 > 100 µM | Hs-578T > 100 µM

CC(CC(=O)N1C2CC3CCC2(CS1(=O)=O)C3(C)C)[Si](C)(C)C (stereo not given)
inactive: OVCAR-8 > 100 µM | CCRF-CEM > 100 µM | M14 > 100 µM | NCI/ADR-RES > 100 µM | SF-539 > 100 µM | K562 > 100 µM | NCI-H460 > 100 µM | HOP-62 > 100 µM | BT-549 > 100 µM | MDA-MB-435 > 100 µM | SF-268 > 100 µM | EKVX > 100 µM | MCF7 > 100 µM | UACC-257 > 100 µM | HT-29 > 100 µM | Hs-578T > 100 µM

CC(=O)Nc1cc(Nc2cc(O)nc(O)n2)ccc1C
inactive: HOP-92 > 100 µM | OVCAR-8 > 100 µM | CCRF-CEM > 100 µM | M14 > 100 µM | NCI/ADR-RES > 100 µM | SF-539 > 100 µM | K562 > 100 µM | NCI-H460 > 100 µM | HOP-62 > 100 µM | BT-549 > 100 µM | MDA-MB-435 > 100 µM | SF-268 > 100 µM | EKVX > 100 µM | OVCAR-5 > 100 µM | MCF7 > 100 µM | UACC-257 > 100 µM | Hs-578T > 100 µM

From ChEMBL document CHEMBL1201862, “PubChem BioAssay data set” (2004)
